# US11492385B2, “Long-acting co-agonists of the glucagon and GLP-1 receptors” (Merck Sharp & Dohme Corp., priority 2015, dated 2022)
# Starred links: 1 amine or outer side, 2 acyl side, 3 side chain; linkers in the order of their positions; H or OH if unused. Non-standard residues stand in square brackets, D forms with d. Residues, ends and D or L forms follow the SMILES beside them. Groups on a side chain read outwards from the residue. *: point of attachment. Phe(4-CH2NH2) = NCc1ccc(C[C@H](N)C(=O)O)cc1; C18 diacid = O=C(O)CCCCCCCCCCCCCCCCC(=O)*; C16 diacid = O=C(O)CCCCCCCCCCCCCCC(=O)*; γGlu = O=C(O)[C@H](CCC(=O)[*:2])N[*:1]; X1 = O=C([C@H]1CCC[C@@H]1N[*:1])[*:2]; Met(O2) = CS(=O)(=O)CC[C@H](N)C(=O)O; αMeD = C[C@](N)(CC(=O)O)C(=O)O; αMeL = CC(C)C[C@](C)(N)C(=O)O; AEEA = NCCOCCOCC(=O)O; Aib = CC(C)(N)C(=O)O
# Assays:
# human GLP1R = target: T1, human GLP1R (Homo sapiens, UniProt P43220); assay: cAMP activity assay, cells expressing human GLP1R; type: cell-based; settings: cAMP production, assay buffer with or without 20% human serum (not stated which)
# T1 construct: expressed in transfected cells; kept under Blasticidin and Hygromycin selection
# T1 sequence (P43220 24-463): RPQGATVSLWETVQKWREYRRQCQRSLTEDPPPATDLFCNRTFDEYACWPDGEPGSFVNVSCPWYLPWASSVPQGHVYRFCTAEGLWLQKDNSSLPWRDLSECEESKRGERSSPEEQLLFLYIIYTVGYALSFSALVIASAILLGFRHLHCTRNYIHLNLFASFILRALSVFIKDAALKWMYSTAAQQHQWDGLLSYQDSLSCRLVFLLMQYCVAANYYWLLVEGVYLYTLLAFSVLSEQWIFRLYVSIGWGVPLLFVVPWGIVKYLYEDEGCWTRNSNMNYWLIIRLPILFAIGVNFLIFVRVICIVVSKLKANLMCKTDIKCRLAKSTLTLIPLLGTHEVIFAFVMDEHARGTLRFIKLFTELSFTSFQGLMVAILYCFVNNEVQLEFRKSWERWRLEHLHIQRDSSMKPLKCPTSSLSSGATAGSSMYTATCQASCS
# Method in brief: (§1)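 Peptides as 10-point titrations from DMSO tested on cells expressing human GLP1R or GCGR. cAMP measured by luminescent kit after overnight room-temperature incubation in the dark. EC50 from four-parameter logistic fit; native GLP-1 and glucagon as controls.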
# human GCGR = target: T2, human GCGR (Homo sapiens, UniProt P47871); assay: cAMP activity assay, cells expressing human GCGR; type: cell-based; settings: for EC50: cAMP production, cells expressing human GCGR, assay buffer with or without 20% human serum (not stated which), read-out: GCGR EC50 human; for hGCGR/hGLP1R (hTone): ratio of human GCGR EC50 to human GLP1R EC50
# T2 construct: expressed in transfected cells; kept under Blasticidin and Hygromycin selection
# T2 sequence (P47871 26-477): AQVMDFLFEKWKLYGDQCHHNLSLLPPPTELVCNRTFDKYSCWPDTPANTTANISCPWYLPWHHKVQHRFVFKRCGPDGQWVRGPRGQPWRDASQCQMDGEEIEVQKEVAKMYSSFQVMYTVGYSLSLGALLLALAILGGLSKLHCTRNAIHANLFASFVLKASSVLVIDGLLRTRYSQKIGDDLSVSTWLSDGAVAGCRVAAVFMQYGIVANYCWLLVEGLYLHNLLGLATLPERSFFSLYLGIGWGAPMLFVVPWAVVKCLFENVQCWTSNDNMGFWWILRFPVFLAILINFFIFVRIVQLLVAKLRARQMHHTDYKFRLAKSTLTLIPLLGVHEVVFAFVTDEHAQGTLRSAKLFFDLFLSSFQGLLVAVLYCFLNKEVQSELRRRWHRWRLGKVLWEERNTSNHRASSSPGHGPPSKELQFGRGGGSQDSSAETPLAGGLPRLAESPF
# Method in brief: as §1
SMILES,EC50 (human GLP1R),EC50 (human GCGR),hGCGR/hGLP1R (hTone) (human GCGR)
CC(C)C[C@H](NC(=O)[C@H](Cc1c[nH]c2ccccc12)NC(=O)[C@H](CCC(N)=O)NC(=O)[C@@H](NC(=O)[C@H](Cc1ccccc1)NC(=O)[C@H](CC(=O)O)NC(=O)[C@H](CCCCNC(=O)COCCOCCNC(=O)COCCOCCNC(=O)CC[C@H](NC(=O)CCCCCCCCCCCCCCC(=O)O)C(=O)O)NC(=O)[C@H](C)NC(=O)[C@H](C)NC(=O)[C@H](CCCNC(=N)N)NC(=O)[C@H](C)NC(=O)[C@H](CC(=O)O)NC(=O)[C@](C)(CC(C)C)NC(=O)[C@H](Cc1ccc(O)cc1)NC(=O)[C@H](CCCCN)NC(=O)[C@H](CO)NC(=O)[C@H](Cc1ccc(O)cc1)NC(=O)[C@H](CC(=O)O)NC(=O)[C@H](CO)NC(=O)[C@@H](NC(=O)[C@H](Cc1ccccc1)NC(=O)[C@@H](NC(=O)CNC(=O)[C@H](CCC(N)=O)NC(=O)C(C)(C)NC(=O)[C@@H](N)Cc1c[nH]cn1)[C@@H](C)O)[C@@H](C)O)C(C)C)C(=O)N[C@@H](CCS(C)(=O)=O)C(=O)N[C@@H](CC(=O)O)C(=O)N[C@H](C(N)=O)[C@@H](C)O [compound 38] (H-H[Aib]QGTFTSDYSKY[αMeL]DARAAK([AEEA-AEEA-γGlu-C16 diacid])DFVQWL[Met(O2)]DT-NH2),0.1 nM,0.46 nM,4.54
CC(C)C[C@H](NC(=O)[C@H](Cc1ccc(O)cc1)NC(=O)[C@H](CCCCN)NC(=O)[C@H](CO)NC(=O)[C@H](Cc1ccc(O)cc1)NC(=O)[C@H](CC(=O)O)NC(=O)[C@H](CO)NC(=O)[C@@H](NC(=O)[C@H](Cc1ccccc1)NC(=O)[C@@H](NC(=O)CNC(=O)[C@H](CCC(N)=O)NC(=O)C(C)(C)NC(=O)[C@@H](N)Cc1c[nH]cn1)[C@@H](C)O)[C@@H](C)O)C(=O)N[C@@H](CC(=O)O)C(=O)N[C@@H](C)C(=O)N[C@@H](CCCNC(=N)N)C(=O)N[C@@H](C)C(=O)N[C@@H](C)C(=O)N[C@@H](CCC(N)=O)C(=O)N[C@@H](Cc1ccc(CNC(=O)COCCOCCNC(=O)COCCOCCNC(=O)CC[C@H](NC(=O)CCCCCCCCCCCCCCCCC(=O)O)C(=O)O)cc1)C(=O)N[C@@H](Cc1ccccc1)C(=O)N[C@H](C(=O)N[C@@H](CCC(N)=O)C(=O)N[C@@H](Cc1c[nH]c2ccccc12)C(=O)N[C@@H](CC(C)C)C(=O)N[C@@H](CC(C)C)C(=O)N[C@@](C)(CC(=O)O)C(=O)N[C@H](C(N)=O)[C@@H](C)O)C(C)C [compound 75] (H-H[Aib]QGTFTSDYSKYLDARAAQ[Phe(4-CH2NH2)]([AEEA-AEEA-γGlu-C18 diacid])FVQWLL[αMeD]T-NH2),0.42 nM,0.36 nM,0.9
CC(C)C[C@H](NC(=O)[C@H](Cc1ccc(O)cc1)NC(=O)[C@H](CCCCN)NC(=O)[C@H](CO)NC(=O)[C@H](Cc1ccc(O)cc1)NC(=O)[C@](C)(CC(=O)O)NC(=O)[C@H](CO)NC(=O)[C@@H](NC(=O)[C@H](Cc1ccccc1)NC(=O)[C@@H](NC(=O)CNC(=O)[C@H](CCC(N)=O)NC(=O)C(C)(C)NC(=O)[C@@H](N)Cc1c[nH]cn1)[C@@H](C)O)[C@@H](C)O)C(=O)N[C@@H](CC(=O)O)C(=O)N[C@@H](C)C(=O)N[C@@H](CCCNC(=N)N)C(=O)N[C@@H](C)C(=O)N[C@@H](C)C(=O)N[C@@H](CCCCNC(=O)COCCOCCNC(=O)COCCOCCNC(=O)CC[C@H](NC(=O)CCCCCCCCCCCCCCC(=O)O)C(=O)O)C(=O)N[C@@H](CC(=O)O)C(=O)N[C@@H](Cc1ccccc1)C(=O)N[C@H](C(=O)N[C@@H](CCC(N)=O)C(=O)N[C@@H](Cc1c[nH]c2ccccc12)C(=O)N[C@@H](CC(C)C)C(=O)N[C@@H](CCS(C)(=O)=O)C(=O)N[C@@H](CC(=O)O)C(=O)N[C@H](C(N)=O)[C@@H](C)O)C(C)C [compound 37] (H-H[Aib]QGTFTS[αMeD]YSKYLDARAAK([AEEA-AEEA-γGlu-C16 diacid])DFVQWL[Met(O2)]DT-NH2),0.11 nM,0.67 nM,6.24
CC(C)C[C@H](NC(=O)[C@H](Cc1ccc(O)cc1)NC(=O)[C@H](CCCCN)NC(=O)[C@H](CO)NC(=O)[C@H](Cc1ccc(O)cc1)NC(=O)[C@H](CC(=O)O)NC(=O)[C@H](CO)NC(=O)[C@@H](NC(=O)[C@H](Cc1ccccc1)NC(=O)[C@@H](NC(=O)CNC(=O)[C@H](CCC(N)=O)NC(=O)[C@@H](CO)NC(=O)[C@@H](N)Cc1c[nH]cn1)[C@@H](C)O)[C@@H](C)O)C(=O)N[C@@H](CC(=O)O)C(=O)N[C@@H](C)C(=O)N[C@@H](CCCNC(=N)N)C(=O)N[C@@H](C)C(=O)N[C@@H](C)C(=O)N[C@@H](CCCCNC(=O)COCCOCCNC(=O)COCCOCCNC(=O)CC[C@H](NC(=O)CCCCCCCCCCCCCCC(=O)O)C(=O)O)C(=O)N[C@@H](CC(=O)O)C(=O)N[C@@H](Cc1ccccc1)C(=O)N[C@H](C(=O)N[C@@H](CCC(N)=O)C(=O)N[C@@H](Cc1c[nH]c2ccccc12)C(=O)N[C@@H](CC(C)C)C(=O)N[C@@H](CCS(C)(=O)=O)C(=O)N[C@@H](CC(=O)O)C(=O)N[C@H](C(N)=O)[C@@H](C)O)C(C)C [compound 14] (H-H[dS]QGTFTSDYSKYLDARAAK([AEEA-AEEA-γGlu-C16 diacid])DFVQWL[Met(O2)]DT-NH2),1.13 nM,0.04 nM,0.03
CC(C)C[C@H](NC(=O)[C@H](Cc1ccc(O)cc1)NC(=O)[C@H](CCCCN)NC(=O)[C@H](CO)NC(=O)[C@H](Cc1ccc(O)cc1)NC(=O)[C@H](CC(=O)O)NC(=O)[C@H](CO)NC(=O)[C@@H](NC(=O)[C@H](Cc1ccccc1)NC(=O)[C@@H](NC(=O)CNC(=O)[C@H](CCC(N)=O)NC(=O)C(C)(C)NC(=O)[C@@H](N)Cc1c[nH]cn1)[C@@H](C)O)[C@@H](C)O)C(=O)N[C@@H](CC(=O)O)C(=O)N[C@@H](C)C(=O)N[C@@H](CCCNC(=N)N)C(=O)N[C@@H](C)C(=O)N[C@@H](C)C(=O)N[C@@H](CCC(N)=O)C(=O)N[C@@H](CCCCNC(=O)COCCOCCNC(=O)COCCOCCNC(=O)CC[C@H](NC(=O)CCCCCCCCCCCCCCCCC(=O)O)C(=O)O)C(=O)N[C@@H](Cc1ccccc1)C(=O)N[C@H](C(=O)N[C@@H](CCC(N)=O)C(=O)N[C@@H](Cc1c[nH]c2ccccc12)C(=O)N[C@@H](CC(C)C)C(=O)N[C@@H](CCS(C)(=O)=O)C(=O)N[C@@](C)(CC(=O)O)C(=O)N[C@H](C(N)=O)[C@@H](C)O)C(C)C [compound 71] (H-H[Aib]QGTFTSDYSKYLDARAAQK([AEEA-AEEA-γGlu-C18 diacid])FVQWL[Met(O2)][αMeD]T-NH2),0.17 nM,0.13 nM,1
CC(C)C[C@H](NC(=O)[C@H](Cc1ccc(O)cc1)NC(=O)[C@H]1CCC[C@@H]1NC(=O)[C@H](CO)NC(=O)[C@H](Cc1ccc(O)cc1)NC(=O)[C@H](CC(=O)O)NC(=O)[C@H](CO)NC(=O)[C@@H](NC(=O)[C@H](Cc1ccccc1)NC(=O)[C@@H](NC(=O)CNC(=O)[C@H](CCC(N)=O)NC(=O)C(C)(C)NC(=O)[C@@H](N)Cc1c[nH]cn1)[C@@H](C)O)[C@@H](C)O)C(=O)N[C@@H](CC(=O)O)C(=O)NC(C)(C)C(=O)N[C@@H](CCCNC(=N)N)C(=O)N[C@@H](C)C(=O)N[C@@H](C)C(=O)N[C@@H](CCCCNC(=O)COCCOCCNC(=O)COCCOCCNC(=O)CC[C@H](NC(=O)CCCCCCCCCCCCCCC(=O)O)C(=O)O)C(=O)N[C@@H](CC(=O)O)C(=O)N[C@@H](Cc1ccccc1)C(=O)N[C@H](C(=O)N[C@H]1CCC[C@@H]1C(=O)N[C@@H](Cc1c[nH]c2ccccc12)C(=O)N[C@@H](CC(C)C)C(=O)N[C@@H](CCS(C)(=O)=O)C(=O)N[C@@H](CC(=O)O)C(=O)N[C@H](C(N)=O)[C@@H](C)O)C(C)C [compound 36] (H-H[Aib]QGTFTSDYS[X1]YLD[Aib]RAAK([AEEA-AEEA-γGlu-C16 diacid])DFV[X1]WL[Met(O2)]DT-NH2; N-terminus assumed),0.36 nM,0.23 nM,0.65
